The numbers were not newly measured in patent publication US20110064750A1, “METHOD AND KIT FOR TREATING NICOTINE ADDICTION” (Nabi Biopharmaceuticals, priority 2009, published 2011), which cites them from elsewhere.

Read-outs that look alike come from different tables or passages of the source.

Data set [1] concerns smoking abstinence. As to conditions: 12 week course, varenicline 1.0 mg bid, bupropion 150 mg SR bid, carbon-monoxide confirmed.
Data set [2] concerns smoking abstinence.
Data set [3] addresses α3β2 nicotinic acetylcholine receptors (Homo sapiens, UniProt P17787+P32297). To be noted: blocking nicotine activation of nAChRs.
The target of data set [4] is α4β2 nicotinic acetylcholine receptors (Homo sapiens, UniProt P17787+P43681). To be noted: blocking nicotine activation of nAChRs.
For data set [5], the system named is neuronal uptake of norepinephrine and dopamine.
In data set [6] the test system is monoamine oxidase.
Data set [7] relates to smoking cessation. To be noted: for Time at which efficacy generally is apparent: previous studies.
For data set [8] the following is noted: salt form, powder.
Data set [9] has as its target α4β2 nicotinic receptors (Homo sapiens, UniProt P17787+P43681). To be noted: stimulating receptor-mediated activity at a significantly lower level than nicotine.

α4β2 nicotinic receptors, sequence (P43681 29-627 limits assumed): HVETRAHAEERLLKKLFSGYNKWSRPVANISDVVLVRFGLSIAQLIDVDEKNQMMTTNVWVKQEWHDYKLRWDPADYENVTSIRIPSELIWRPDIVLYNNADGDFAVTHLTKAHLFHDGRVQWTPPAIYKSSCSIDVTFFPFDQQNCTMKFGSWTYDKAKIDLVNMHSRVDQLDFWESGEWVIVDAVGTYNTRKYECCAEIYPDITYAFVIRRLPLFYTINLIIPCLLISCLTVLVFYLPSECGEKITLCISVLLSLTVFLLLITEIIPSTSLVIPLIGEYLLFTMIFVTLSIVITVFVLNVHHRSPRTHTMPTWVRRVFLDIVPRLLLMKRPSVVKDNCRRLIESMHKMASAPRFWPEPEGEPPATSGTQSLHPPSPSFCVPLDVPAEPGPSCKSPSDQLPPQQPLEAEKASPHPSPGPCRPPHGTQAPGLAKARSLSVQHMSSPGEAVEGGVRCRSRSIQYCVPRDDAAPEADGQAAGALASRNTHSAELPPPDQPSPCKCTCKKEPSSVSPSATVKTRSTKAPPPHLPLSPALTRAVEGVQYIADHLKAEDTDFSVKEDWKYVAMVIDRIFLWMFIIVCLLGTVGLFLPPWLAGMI
α4β2 nicotinic receptors, sequence (P17787 26-502): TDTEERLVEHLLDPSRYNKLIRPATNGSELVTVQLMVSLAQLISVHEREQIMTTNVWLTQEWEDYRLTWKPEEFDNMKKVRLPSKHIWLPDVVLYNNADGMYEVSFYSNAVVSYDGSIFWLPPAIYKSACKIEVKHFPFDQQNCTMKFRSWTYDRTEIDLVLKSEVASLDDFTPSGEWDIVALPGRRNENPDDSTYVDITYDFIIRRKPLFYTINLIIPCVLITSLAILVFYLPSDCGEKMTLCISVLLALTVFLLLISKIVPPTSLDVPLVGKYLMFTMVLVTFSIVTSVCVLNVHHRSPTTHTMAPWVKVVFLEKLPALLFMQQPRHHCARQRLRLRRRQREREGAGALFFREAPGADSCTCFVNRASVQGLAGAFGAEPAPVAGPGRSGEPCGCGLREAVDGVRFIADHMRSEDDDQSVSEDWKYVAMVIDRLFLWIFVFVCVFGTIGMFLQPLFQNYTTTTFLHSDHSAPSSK
α4β2 nicotinic acetylcholine receptors, sequence (P43681 29-627 limits assumed): as the sequence (P43681 29-627 limits assumed) above
α4β2 nicotinic acetylcholine receptors, sequence (P17787 26-502): as the sequence (P17787 26-502) above
α3β2 nicotinic acetylcholine receptors, sequence (P32297 32-505): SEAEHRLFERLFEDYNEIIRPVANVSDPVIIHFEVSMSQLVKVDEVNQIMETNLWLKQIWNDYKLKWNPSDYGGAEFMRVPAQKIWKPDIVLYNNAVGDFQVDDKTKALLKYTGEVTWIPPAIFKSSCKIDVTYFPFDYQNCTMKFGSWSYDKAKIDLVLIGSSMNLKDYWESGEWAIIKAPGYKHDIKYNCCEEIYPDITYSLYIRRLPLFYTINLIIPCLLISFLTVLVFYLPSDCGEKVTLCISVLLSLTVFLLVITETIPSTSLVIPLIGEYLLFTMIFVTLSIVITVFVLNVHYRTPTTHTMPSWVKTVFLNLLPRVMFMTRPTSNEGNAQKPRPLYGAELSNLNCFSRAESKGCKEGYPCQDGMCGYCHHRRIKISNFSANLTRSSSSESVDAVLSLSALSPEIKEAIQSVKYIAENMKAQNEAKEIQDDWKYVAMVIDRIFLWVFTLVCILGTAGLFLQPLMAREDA
α3β2 nicotinic acetylcholine receptors, sequence (P17787 26-502): as the sequence (P17787 26-502) above

In the case of `CC(NC(C)(C)C)C(=O)c1cccc(Cl)c1.Cl` (stereo not shown) [Bupropion, Bupropion hydrochloride], the “Continuous Abstinence Rate (Wks 9-12)” value in data set [1] (Study A) was 16%. The “Continuous Abstinence Rate (Wks 9-12)” value in data set [1] (Study B) was 14%. Besides, in data set [2] (100 mg/day), the “Abstinence from week 4 through Week 7 (4-week quit)” value (“Abstinence … (4-week quit)” below) is listed as 22%, the “Abstinence from week 4 through Week 12” value was 20% and the “Abstinence from week 4 through Week 26” value was 16%. In addition, in data set [2] (150 mg/day), the “Abstinence … (4-week quit)” value was 27%, the “Abstinence from week 4 through Week 12” value was 20% and the “Abstinence from week 4 through Week 26” value is reported as 18%. In data set [2] (300 mg/day), the “Abstinence … (4-week quit)” value is reported as 36%, the “Abstinence from week 4 through Week 12” value is recorded as 25% and the “Abstinence from week 4 through Week 26” value is listed as 19%. Moreover, the “Times more effective in blocking α3β2 than α7” value in data set [3] was 50 times. The “Times more effective in blocking α4β2 than α7” value in data set [4] was 12 times. Further, in data set [5], the “Inhibition of the neuronal uptake of norepinephrine and dopamine” value is recorded as “relatively weak inhibitor”. The “Inhibition of monoamine oxidase” value in [6] was “does not inhibit”. In data set [7] (even though administration is ongoing), the “Time at which efficacy may diminish” value is reported as “after about six or seven weeks”. In [7] (in vivo), the “Chances of quitting smoking compared with placebo” value was “double”; the “Nicotine craving and nicotine withdrawal symptoms” value is “lower”. For the same molecule, the “Time at which efficacy generally is apparent” value in data set [7] is listed as “one week after the first dose”. Further, the Solubility in water result in data set [8] is “highly soluble in water”.

Turning to `c1cnc2cc3c(cc2n1)[C@@H]1CNC[C@H]3C1` [Varenicline, 7,8,9,10-tetrahydro-6,10-methano-6H-pyrazino[2,3-h][3]benzazpine, (2R,3R)-2,3-dihydroxybutanedioate(1:1)], the “Continuous Abstinence Rate (Wks 9-12)” value in data set [1] (Study A) is listed as 21%; in data set [1] (Study B) it was 22%. Moreover, the “Agonist activity at α4β2 nicotinic receptors” value in [9] is on record as “low level agonist”. In data set [7], the “Time at which efficacy generally is apparent” value was “one week after the first dose”. Also, in data set [8], the Solubility in water entry is reported as “highly soluble in water”.
